Assay results from patent publication US8901118B2, “Compounds and methods for kinase modulation, and indications therefor” (Plexxikon Inc., priority 2010, dated 2014).

Key:
c-Kit kinase = c-Kit kinase (Homo sapiens, UniProt P10721); test: c-Kit kinase biochemical activity assay (AlphaScreen, biotin-(E4Y)10 phosphorylation); details: 100 μM ATP; read-out: Biochemical Inhibition IC50 Kit
Protocol: Assays for biochemical and cell based activity are known in the art, for example, U.S. Patent Application Publication Number 2009/0076046, the disclosure of which is hereby incorporated by reference as it relates to such assays. For example, in one assay the biochemical activity IC50 values are determined with respect to inhibition of c-Kit kinase activity, where inhibition of phosphorylation of a peptide substrate is measured as a function of compound concentration. Compounds to be tested are dissolved in DMSO to a concentration of 20 mM. These are diluted 30 μL into 120 μL of DMSO (4 mM) and 1 μL is added to an assay plate. These are then serially diluted […] (50 μL to 100 μL DMSO) for a total of 8 points. Plates are prepared such that each kinase reaction is 20 μL in 1× kinase buffer (25 mM HEPES, pH 7.5, 2 mM MgCl2, 2 mM MnCl2, 0.01% Tween-20, 1 mM DTT, 0.01% BSA), 5% DMSO and 100 μM ATP. Substrate is 30 nM biotin-(E4Y) 10 (Millipore). C-kit kinase (obtained from Millipore (#14-559) or is prepared as described in U.S. Patent Application Publication Number 2009/0076046, the disclosure of which is hereby incorporated by reference as it relates to this assay) is at 0.75 ng per sample. After incubation of the kinase reaction for 1 hour at room temperature, 5 μL of donor beads (Streptavidin coated beads (Perkin Elmer Life Science) final concentration 10 μg/mL) in stop buffer (25 mM Hepes pH 7.5, 100 mM EDTA, 0.01% BSA) is added, the sample is mixed and incubated for 20 minutes at room temperature before adding 5 μL of acceptor beads (PY20 coated beads (Perkin Elmer Life Science) final concentration 10 μg/mL) in stop buffer. The samples are incubated for 60 minutes at room temperature and the signal per well is read on Envision reader. Phosphorylated substrate results in binding of the PY20 antibody and association of the donor and acceptor beads such that signal correlates with kinase activity. The signal vs. compound concentration is used to determine the IC50.

TrkA kinase = TrkA kinase (Homo sapiens, UniProt P04629); test: TrkA kinase biochemical activity assay (AlphaScreen); details: 100 μM ATP; read-out: Biochemical Inhibition IC50 TrkA
Protocol: In one assay the biochemical activity IC50 values are determined with respect to inhibition of TrkA kinase activity, where inhibition of phosphorylation of a peptide substrate is measured as a function of compound concentration. Compounds to be tested, dissolved in DMSO (1 μL), are added to a white 384-well plate (Costar #3705). Working stocks of TrkA kinase (UBI), biotin-(E4Y)10 substrate (Upstate Biotech, Cat#12-440), and ATP (Sigma, Cat#A-3377) are prepared in 25 mM Hepes pH 7.5, 10 mM MnCl2, 1 mM DTT, 0.01% BSA, and 0.01% Tween-20. All components are added to the 384-well plate for a final concentration of 1 ng/well TrkA, 30 nM biotin-(E4Y)10 and 100 μM ATP in a volume of 20 μL. Each sample is at 5% DMSO. The plate is shaken for 1 minute at 1200 rpm, spun for 1 minute at 1000 rpm, then incubated for 40 minutes at room temperature. Just before use, working stocks of donor and acceptor beads from the AlphaScreen PY20 Detection Kit (PerkinElmer, Cat#676601M) are prepared in 25 mM Hepes pH 7.5, 100 mM EDTA. 0.01% BSA. Donor Beads solution (Streptavidin beads) is added (5 μL) to each well to final bead concentration of 10 μg/mL. The plate is incubated at room temperature for 20 minutes. Acceptor Beads solution (PY20 coated beads) are then added to each well (5 μL) to a final concentration of bead at 10 μg/mL. The plates are incubated at room temperature for 60 minutes. Fluorescence signal is recorded on the Envision reader. Phosphorylated substrate results in binding of the PY20 antibody and association of the donor and acceptor beads such that signal correlates with kinase activity. The signal vs. compound concentration is used to determine the IC50. Similar assays are used for TrkB and Trk C kinase.

CYP2C19 = CYP2C19 (Homo sapiens, UniProt P33261); test: CYP2C19 inhibition (fluorescent substrate CEC); assay type: in vitro ADME; details: read-out: Cyp IC50 2C19
Protocol: (§1) CYP (Cytochrome P450) enzymes are the major drug metabolizing enzymes present in the liver. The inhibition of CYP enzyme activity (IC50) for each of CYP1A2, CYP2C19, CYP2C9, CYP2D6, CYP3A4(BFC) and CYP3A4(BQ) is determined for compounds, where inhibition of metabolism of a known substrate leads to a decrease in the fluorescence of the metabolized product. The fluorescence of the product is monitored as a function of compound concentration. Compounds are dissolved in DMSO to a concentration of 100 mM. These are diluted 1 μL into 82 μL of acetonitrile. An 11 μL aliquot of this solution is then added to 204 μL of cofactor mix (1.3% NADPH Regeneration system Solution A, 1.04% NADPH Regeneration system Solution B from BD Biosciences, 5% acetonitrile and 0.05% DMSO). These are then serially diluted 1:1 (160 μL to 160 μL co-factor mix) for a total of 10 points. A 10 μL aliquot of this final mixture is dispensed into 384 well assay plates and incubated for 10 minutes at 37° C. […] Assay plates are incubated at 37° C. (CYP1A2-15 min; CYP2C9-45 min; CYP2C19, 2D6 and 3A4-30 min) and read in a Tecan Safire 2 plate reader (CYP1A2, 2C19 and 3A4 409 ex/460 em; CYP2C9 and 2D6 409 ex/530 em). The signal versus compound concentration is used to determine the IC50. The enzymes and substrates for this assay are obtained from BD Biosciences.

CYP2D6 = CYP2D6 (Homo sapiens, UniProt P10635); test: CYP2D6 inhibition (fluorescent substrate AMMC); assay type: in vitro ADME; details: read-out: Cyp IC50 2D6
Protocol: as §1

CYP3A4(BQ) = CYP3A4(BQ) (Homo sapiens, UniProt P08684); test: CYP3A4(BQ) inhibition; assay type: in vitro ADME; details: CYP3A4, substrate BQ; read-out: Cyp IC50 3A4(BQ)
Protocol: as §1

CYP2D6, sequence (P10635 whole entry): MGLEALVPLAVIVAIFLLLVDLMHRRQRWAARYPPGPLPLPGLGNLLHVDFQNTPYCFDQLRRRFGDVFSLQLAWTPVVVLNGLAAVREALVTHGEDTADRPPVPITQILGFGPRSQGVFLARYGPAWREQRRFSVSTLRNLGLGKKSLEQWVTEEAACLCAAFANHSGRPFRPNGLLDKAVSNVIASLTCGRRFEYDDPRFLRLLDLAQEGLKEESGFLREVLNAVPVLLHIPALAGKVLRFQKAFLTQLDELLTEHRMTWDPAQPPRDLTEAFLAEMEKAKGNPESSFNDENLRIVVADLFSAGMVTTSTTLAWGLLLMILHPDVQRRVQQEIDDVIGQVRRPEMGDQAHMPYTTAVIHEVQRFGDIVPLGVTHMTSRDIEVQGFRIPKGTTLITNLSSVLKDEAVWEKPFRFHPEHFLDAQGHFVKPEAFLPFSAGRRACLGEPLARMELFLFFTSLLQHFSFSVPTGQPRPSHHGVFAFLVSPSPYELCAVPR
CYP3A4(BQ), sequence (P08684 whole entry): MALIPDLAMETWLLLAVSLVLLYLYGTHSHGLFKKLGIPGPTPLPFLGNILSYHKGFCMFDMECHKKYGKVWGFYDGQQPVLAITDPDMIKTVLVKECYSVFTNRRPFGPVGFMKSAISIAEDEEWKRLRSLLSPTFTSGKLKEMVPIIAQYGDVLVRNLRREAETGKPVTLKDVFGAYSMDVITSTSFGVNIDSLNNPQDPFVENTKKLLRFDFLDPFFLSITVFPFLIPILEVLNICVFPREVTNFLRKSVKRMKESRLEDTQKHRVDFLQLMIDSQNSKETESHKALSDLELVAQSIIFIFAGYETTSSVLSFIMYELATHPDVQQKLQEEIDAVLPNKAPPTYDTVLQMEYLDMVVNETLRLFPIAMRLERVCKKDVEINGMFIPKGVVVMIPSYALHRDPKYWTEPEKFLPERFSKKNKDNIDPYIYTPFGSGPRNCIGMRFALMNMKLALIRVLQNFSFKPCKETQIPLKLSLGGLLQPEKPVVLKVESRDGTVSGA
CYP2C19, sequence (P33261 whole entry): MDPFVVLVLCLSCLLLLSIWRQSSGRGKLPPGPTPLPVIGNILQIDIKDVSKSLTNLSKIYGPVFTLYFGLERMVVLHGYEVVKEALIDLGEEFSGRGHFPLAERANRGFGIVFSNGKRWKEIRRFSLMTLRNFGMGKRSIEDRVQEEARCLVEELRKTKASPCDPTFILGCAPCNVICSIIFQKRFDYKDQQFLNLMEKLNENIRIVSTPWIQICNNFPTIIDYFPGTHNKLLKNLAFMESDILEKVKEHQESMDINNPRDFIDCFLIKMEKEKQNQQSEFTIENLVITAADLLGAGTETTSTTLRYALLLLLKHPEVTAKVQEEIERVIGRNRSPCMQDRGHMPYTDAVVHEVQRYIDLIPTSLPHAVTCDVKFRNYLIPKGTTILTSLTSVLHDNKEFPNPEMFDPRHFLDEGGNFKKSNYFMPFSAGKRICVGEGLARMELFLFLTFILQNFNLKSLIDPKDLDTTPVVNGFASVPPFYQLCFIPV
c-Kit kinase, sequence (P10721 26-976): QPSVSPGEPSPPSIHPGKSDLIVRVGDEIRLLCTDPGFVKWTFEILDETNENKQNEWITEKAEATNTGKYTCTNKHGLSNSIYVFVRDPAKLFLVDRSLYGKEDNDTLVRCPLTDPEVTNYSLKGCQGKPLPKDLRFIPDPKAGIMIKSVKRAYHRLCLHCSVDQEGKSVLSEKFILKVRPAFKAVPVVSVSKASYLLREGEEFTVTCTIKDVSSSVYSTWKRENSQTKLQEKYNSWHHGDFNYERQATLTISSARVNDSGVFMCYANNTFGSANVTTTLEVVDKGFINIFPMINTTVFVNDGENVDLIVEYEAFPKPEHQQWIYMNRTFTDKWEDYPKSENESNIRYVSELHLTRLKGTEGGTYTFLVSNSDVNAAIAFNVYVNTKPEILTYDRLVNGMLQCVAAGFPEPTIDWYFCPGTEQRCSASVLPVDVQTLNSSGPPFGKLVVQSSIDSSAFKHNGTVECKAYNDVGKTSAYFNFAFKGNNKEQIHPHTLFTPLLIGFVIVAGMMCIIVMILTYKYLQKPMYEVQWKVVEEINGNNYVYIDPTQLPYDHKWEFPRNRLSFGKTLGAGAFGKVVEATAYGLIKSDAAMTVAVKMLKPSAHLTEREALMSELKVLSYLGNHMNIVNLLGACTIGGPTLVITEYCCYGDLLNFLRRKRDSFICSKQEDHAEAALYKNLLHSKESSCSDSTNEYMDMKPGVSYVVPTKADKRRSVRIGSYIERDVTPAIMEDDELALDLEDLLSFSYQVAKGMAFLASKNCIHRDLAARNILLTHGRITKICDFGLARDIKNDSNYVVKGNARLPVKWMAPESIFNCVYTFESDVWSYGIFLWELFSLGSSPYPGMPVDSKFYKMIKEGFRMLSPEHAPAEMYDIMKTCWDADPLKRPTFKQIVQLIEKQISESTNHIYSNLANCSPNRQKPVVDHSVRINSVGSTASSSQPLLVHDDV
TrkA kinase, sequence (P04629 33-796): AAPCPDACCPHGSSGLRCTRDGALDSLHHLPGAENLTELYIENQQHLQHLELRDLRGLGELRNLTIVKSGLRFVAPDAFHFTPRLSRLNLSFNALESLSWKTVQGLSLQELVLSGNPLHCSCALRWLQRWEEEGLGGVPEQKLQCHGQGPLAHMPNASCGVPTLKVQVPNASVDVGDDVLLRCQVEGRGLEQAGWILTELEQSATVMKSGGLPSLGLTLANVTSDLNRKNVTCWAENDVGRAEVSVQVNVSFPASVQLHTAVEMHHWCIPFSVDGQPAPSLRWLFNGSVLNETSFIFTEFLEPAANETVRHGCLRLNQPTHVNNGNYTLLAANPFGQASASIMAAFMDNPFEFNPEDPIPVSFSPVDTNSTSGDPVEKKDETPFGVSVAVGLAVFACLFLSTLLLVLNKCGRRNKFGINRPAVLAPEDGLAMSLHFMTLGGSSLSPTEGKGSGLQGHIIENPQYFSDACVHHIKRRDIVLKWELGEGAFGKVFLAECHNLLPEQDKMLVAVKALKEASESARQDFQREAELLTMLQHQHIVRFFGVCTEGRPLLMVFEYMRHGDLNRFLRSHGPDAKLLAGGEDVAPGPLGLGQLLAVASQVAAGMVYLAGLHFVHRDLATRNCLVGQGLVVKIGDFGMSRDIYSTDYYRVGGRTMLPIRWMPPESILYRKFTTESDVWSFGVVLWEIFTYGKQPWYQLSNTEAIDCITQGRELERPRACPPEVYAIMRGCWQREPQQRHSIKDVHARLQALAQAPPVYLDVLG

| IC50 (c-Kit kinase) | IC50 (TrkA kinase) | IC50 (CYP2C19) | IC50 (CYP2D6) | IC50 (CYP3A4(BQ)) | SMILES |
| --- | --- | --- | --- | --- | --- |
| < 0.1 µM | < 0.01 µM | > 10 µM | > 10 µM | > 10 µM | O=C(c1ccc(NC2CCC(F)(F)CC2)nc1F)c1c[nH]c2ncnc(NC3CC3)c12 [Compound P-4062, [4-(cyclopropylamino)-7H-pyrrolo[2,3-d]pyrimidin-5-yl]-[6-[(4,4-difluorocyclohexyl)amino]-2-fluoro-3-pyridyl]methanone] |
| < 1 µM | < 0.01 µM | > 10 µM | > 10 µM | > 10 µM | CNc1ncnc2[nH]cc(C(=O)c3ccc(NC4CCC(F)(F)CC4)nc3F)c12 [Compound P-4063, [6-[(4,4-difluorocyclohexyl)amino]-2-fluoro-3-pyridyl]-[4-(methylamino)-7H-pyrrolo[2,3-d]pyrimidin-5-yl]methanone] |
| < 1 µM | < 0.01 µM | 5 to 10 µM | > 10 µM | > 10 µM | COc1ccc(Nc2ccc(C(=O)c3c[nH]c4ncnc(NCC5CC5)c34)c(F)n2)cn1 [Compound P-4067, [4-(cyclopropylmethylamino)-7H-pyrrolo[2,3-d]pyrimidin-5-yl]-[2-fluoro-6-[(6-methoxy-3-pyridyl)amino]-3-pyridyl]methanone] |
| < 1 µM | < 0.01 µM | 5 to 10 µM | > 10 µM | > 10 µM | CCN1CCC(Nc2ncnc3[nH]cc(C(=O)c4ccc(Nc5ccc(OC)nc5)nc4F)c23)CC1 [Compound P-4074, [4-[(1-ethyl-4-piperidyl)amino]-7H-pyrrolo[2,3-d]pyrimidin-5-yl]-[2-fluoro-6-[(6-methoxy-3-pyridyl)amino]-3-pyridyl]methanone] |
| < 1 µM | < 0.01 µM | 5 to 10 µM | > 10 µM | > 10 µM | COc1ccc(Nc2ccc(C(=O)c3c[nH]c4ncnc(NC5CCCC5)c34)c(F)n2)cn1 [Compound P-4075, [4-(cyclopentylamino)-7H-pyrrolo[2,3-d]pyrimidin-5-yl]-[2-fluoro-6-[(6-methoxy-3-pyridyl)amino]-3-pyridyl]methanone] |

Second part, the compound before the results:

| SMILES | IC50 (c-Kit kinase) | IC50 (TrkA kinase) | IC50 (CYP2C19) | IC50 (CYP2D6) | IC50 (CYP3A4(BQ)) |
| --- | --- | --- | --- | --- | --- |
| CCc1ccc(Nc2ccc(C(=O)c3c[nH]c4ncnc(NCC(C)(C)O)c34)c(F)n2)cn1 [Compound P-4064, [6-[(6-ethyl-3-pyridyl)amino]-2-fluoro-3-pyridyl]-[4-[(2-hydroxy-2-methyl-propyl)amino]-7H-pyrrolo[2,3-d]pyrimidin-5-yl]methanone] | < 0.1 µM | < 0.01 µM | > 10 µM | > 10 µM | > 10 µM |
| CCc1ccc(Nc2ccc(C(=O)c3c[nH]c4ncnc(N)c34)c(F)n2)cn1 [Compound P-4065, (4-amino-7H-pyrrolo[2,3-d]pyrimidin-5-yl)-[6-[(6-ethyl-3-pyridyl)amino]-2-fluoro-3-pyridyl]methanone] | < 0.1 µM | < 0.01 µM | > 10 µM | > 10 µM | > 10 µM |
| COc1ccc(Nc2ccc(C(=O)c3c[nH]c4ncnc(NC(C)C)c34)c(F)n2)cn1 [Compound P-4066, [2-fluoro-6-[(6-methoxy-3-pyridyl)amino]-3-pyridyl]-[4-(isopropylamino)-7H-pyrrolo[2,3-d]pyrimidin-5-yl]methanone] | < 0.1 µM | < 0.01 µM | > 10 µM | > 10 µM | 5 to 10 µM |
| CCCNc1ncnc2[nH]cc(C(=O)c3ccc(Nc4ccc(OC)nc4)nc3F)c12 [Compound P-4068, [2-fluoro-6-[(6-methoxy-3-pyridyl)amino]-3-pyridyl]-[4-(propylamino)-7H-pyrrolo[2,3-d]pyrimidin-5-yl]methanone] | < 0.1 µM | < 0.01 µM | > 10 µM | > 10 µM | > 10 µM |
| COc1ccc(Nc2ccc(C(=O)c3c[nH]c4ncnc(N5CCCCC5)c34)c(F)n2)cn1 [Compound P-4069, [2-fluoro-6-[(6-methoxy-3-pyridyl)amino]-3-pyridyl]-[4-(1-piperidyl)-7H-pyrrolo[2,3-d]pyrimidin-5-yl]methanone] | > 1 µM | < 0.1 µM | 5 to 10 µM | > 10 µM | > 10 µM |
| COc1ccc(Nc2ccc(C(=O)c3c[nH]c4ncnc(N5CCOCC5)c34)c(F)n2)cn1 [Compound P-4070, [2-fluoro-6-[(6-methoxy-3-pyridyl)amino]-3-pyridyl]-(4-morpholino-7H-pyrrolo[2,3-d]pyrimidin-5-yl)methanone] | > 1 µM | > 1 µM | > 10 µM | > 10 µM | > 10 µM |
| COc1ccc(Nc2ccc(C(=O)c3c[nH]c4ncnc(NCc5ccc(C(F)(F)F)nc5)c34)c(F)n2)cn1 [Compound P-4071, [2-fluoro-6-[(6-methoxy-3-pyridyl)amino]-3-pyridyl]-[4-[[6-(trifluoromethyl)-3-pyridyl]methylamino]-7H-pyrrolo[2,3-d]pyrimidin-5-yl]methanone] | > 1 µM | < 0.01 µM | > 10 µM | > 10 µM | > 10 µM |
| COc1ccc(Nc2ccc(C(=O)c3c[nH]c4ncnc(N[C@@H](C)c5ccc(F)cc5)c34)c(F)n2)cn1 [Compound P-4072, [2-fluoro-6-[(6-methoxy-3-pyridyl)amino]-3-pyridyl]-[4-[[(1S)-1-(4-fluorophenyl)ethyl]amino]-7H-pyrrolo[2,3-d]pyrimidin-5-yl]methanone] | > 1 µM | < 0.1 µM | < 10 µM | 5 to 10 µM | > 10 µM |
| COc1ccc(Nc2ccc(C(=O)c3c[nH]c4ncnc(NCC5CCCO5)c34)c(F)n2)cn1 (stereo not shown) [Compound P-4073, [2-fluoro-6-[(6-methoxy-3-pyridyl)amino]-3-pyridyl]-[4-(tetrahydrofuran-2-ylmethylamino)-7H-pyrrolo[2,3-d]pyrimidin-5-yl]methanone] | < 1 µM | < 0.01 µM | 5 to 10 µM | > 10 µM | > 10 µM |
